Test results: EP1379634B1 (THE UNIVERSITY OF GEORGIA RESEARCH FOUNDATION, INC., priority 2001, dated 2002)
Residues, ends and D or L forms follow the SMILES beside them. *: point of attachment. AFC = O=c1cc(C(F)(F)F)c2ccc(N*)cc2o1; Cbz = O=C(OCc1ccccc1)*; CH2F = FC*

Legend:
[1] = system: purified Taenia solium cysteine protease; test: Substrate cleavage screen of AFC-linked peptides (Step II), purified protease; assay type: biochemical; conditions: 0.4 M Citrate, pH 4.9, 0.01 M cysteine, 18 h, 37 °C
Experimental: In this step, the most efficacious substrate for detection of the cysteine protease (high Kcat substrate) was determined in vitro along with those substrates which were not well cleaved (low kcat substrates). From this point forward, the following conditions refer to all assays: "assay buffer" refers to 0.4 M Citrate, pH 4.9 (the pH optima of the protease). Incubation time was 18 hours at 37°C. These conditions were determined by our preliminary data to be best for kinetic evaluation of the protease. […] The experiments were conducted in 6X50 […] Borosilicate mini-culture tubes (Fisher Scientific), and a fluorometer (Turner) was employed for detection of AFC cleavage.
Since the full 8,420 amino acid possibilities for cleavage were not available, representative substrates were employed. […] In order to choose this subset, representative amino acids (i.e., selected from the categories of acidic, basic, nonpolar, uncharged) were chosen so as to create as many categories of motifs as feasible for the P3-P1 positions with a set of 67 small peptides (see lists at Fig. 4a and Fig. 4b). The target cysteine protease from Taenia solium was isolated using the purification methods described previously in the patent WO 00/63350.
Approximately 1 ug (or a proteolytically detectable amount) of the purified target cysteine protease was incubated individually, with 1 ug of each of the available substrates in 500 uL of assay buffer. During this setup, the substrate was pre-incubated in the assay buffer for a short period of time (20 minutes) in order to reach an equilibrated status before the addition of the protease. Cleavage assessments were based upon the property of the protease to cleave synthetic peptide substrates linked at the C-terminus to 7-Amino-4-Trifluoromethyl Coumarin (AFC) as previously described. AFC linked tripeptides, dipeptides, and monopeptides, (with a variety of permutations at P3-P1) were available from Enzyme Systems Products (Livermore, CA), and were used as the source of the subset. Following incubation of enzyme preparations overnight (18 h, 37 °C) with peptide in assay buffer (Citrate, pH 4.9, supplemented with 0.01 M cysteine), free AFC concentrations were measured fluorometrically (excitation 405 nm, emission 505 nm). The proteolytic cleavage released the AFC group, which was measurable as a free molecule by a standard fluorometer and converted into molar quantities, based upon a previously established standard curve. The simplicity of AFC detection by the fluorometer was a key factor which expedited and simplified the procedures.
In the assay, 1 ug of the purified Taenia cysteine protease was added to a saturating amount of Z-Phe-Arg-AFC (4X10^-5 M) in assay buffer. The experiment was conducted in triplicate and repeated at least 5 times until we were certain that variability in AFC cleavage was not statistically significant.
Vmax for the cleavage of substrates by the purified target protease and Vmax for substrates cleaved by the crude mix protease were each calculated using conventional kinetic modeling calculations already described in the art.

Taenia solium crude mix = test: Competitor assay of vehicles against high Vmax substrate cocktails (Step III), crude mix; assay type: biochemical
Text: Step III for a crude mix proceeds as it would for a purified protease, except that Vm is used instead of kcat.
One of the most intriguing findings in this experiment was that a highly similar inhibition pattern for the competitor assay resulted when the crude mix was employed as the source of the target protease. Although there were some variations in the effects of inhibitor dilution, the most highly ranked vehicles remained inhibitory consistently in comparison to the profile with the target protease. The relative profile and composition of the top tier of vehicles was identical. Z-LLL-AFC, Z-LLY-AFC, Mu-LY-AFC, Boc-VPR-AFC, Z-SY-AFC, Z-RR-AFC, Z-FLF-AFC, and Z-LGR-AFC consistently emerged as the top eight vehicles (Fig. 5b), respectively, based upon their V values (Table 2). […] It was notable that the three vehicles had very similar V values. […] As was mentioned, this vehicle along with Z-LLL-AFC and Z-LLY-AFC, were consistently the most inhibitory vehicles. The V values of the most inhibitory vehicle series are shown below in Table 2. Again, a clear break between the first and second tier vehicles is discernible for the V value. Table 2. Vehicles and V value rankings.

Trypsin = test: Selectivity test (Steps VI and IX), Trypsin; assay type: biochemical, human; conditions: pH 8.0, substrate Z-R-AFC
Experimental: (§1) In order to perform the assay, the vehicle (for Step VI) or inhibitor (for Step IX) were incubated with the appropriate substrate in the correct assay buffer and allowed to equilibrate. Subsequently, the protease was added, and the assay was allowed to incubate for an appropriate time. The concentrations used in this experiment were as follows: Vehicle was set up at 4 X 10^-5 M in final assay buffer; Inhibitor was set up at 3 X 10^-10 M in the final assay buffer. Preferably the dosages employed should be the minimal amount of vehicle or inhibitor necessary to induce inhibition. […] Substrates were set up based upon the preferred substrate for cleavage of the particular enzyme.
(§2) Positive controls were set up similarly as described for test controls, except that a solvent blank was added in substitution for the inhibitor or vehicle (in a volume equal to the volume of inhibitor or vehicle addition). All of the inhibitors and vehicles could be dissolved in dimethylsulfoxide (DMSO), and therefore, this was the solvent of choice. Negative controls were set up by adding the inhibitor or vehicle and the preferred substrates in a tube without the protease. All potential non-proteolytic liberation of AFC was therefore controlled for in this tube.
(§3) All controls were set up in triplicate, and experiments were repeated a minimum of five times.
(§4) Percent inhibition was calculated as: %Inhibition = ((AFC positive for "SI"−AFC negative for "SI")−(AFC test−AFC negative for "SI"))/(AFC positive for "SI"−AFC negative for "SI") × 100 [formula]
(§5) In this preliminary test, we employed the following human-derived enzymes (with indicated mechanistic class in parentheses): Cathepsin B (cysteine), Cathepsin L (cysteine), Cathepsin H (cysteine), Cathepsin D (aspartic), Trypsin (serine), the purified Taenia solium cysteine protease, and the Taenia solium crude mix. Cathepsin B was prepared in an assay buffer of 10 mM L-cysteine in 0.4 M Citrate buffer, pH 6.1, using Z-ARR-AFC as the cleavage substrate. Cathepsin L was prepared in an assay buffer of 10 mM L-cysteine in 0.4 M Citrate buffer, pH 5.5, using Z-FR-AFC as the cleavage substrate. Cathepsin H was prepared in an assay buffer of 10 mM L-cysteine in 0.15 M PBS buffer, pH 6.8, using L-R-AFC as the cleavage substrate. Cathepsin D was prepared in an assay buffer of 0.15 M PBS, pH 7.1, using Z-RGFFP-AFC as the cleavage substrate. Trypsin was prepared in an assay buffer of 0.15 M PBS, pH 8.0, supplemented with 100 mM CaCl2 and with Z-R-AFC as the cleavage substrate. Enzyme was incubated so that it was at least 50 times less than the concentration of substrate in order to insure saturating conditions.

Cathepsin L = Cathepsin L (Homo sapiens, UniProt P07711); test: Selectivity test (Steps VI and IX), Cathepsin L; assay type: biochemical; conditions: pH 5.5, substrate Z-FR-AFC
Sequence of Cathepsin L (P07711 114-333): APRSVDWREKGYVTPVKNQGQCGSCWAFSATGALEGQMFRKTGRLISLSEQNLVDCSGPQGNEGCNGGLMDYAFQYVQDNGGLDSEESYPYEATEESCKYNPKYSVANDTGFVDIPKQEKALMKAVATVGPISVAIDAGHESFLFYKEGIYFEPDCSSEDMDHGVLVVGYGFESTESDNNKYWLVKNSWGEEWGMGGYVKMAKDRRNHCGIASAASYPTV
Experimental: as §1, §2, §3, §4, §5

Cathepsin B = Cathepsin B (Homo sapiens, UniProt P07858); test: Selectivity test (Steps VI and IX), Cathepsin B; assay type: biochemical; conditions: vehicle 4 X 10^-5 M; pH 6.1, substrate Z-ARR-AFC; 40 µM
Experimental: as §1
as §2, with “All potential non-proteolytic liberation of AFC was therefore controlled for in this tube.” left out
Percent inhibition was calculated as: %Inhibition = ((AFC positive for "SI"−AFC negative for "SI")−(AFC test−AFC negative for "SI"))/(AFC positive for "SI"−AFC negative for "SI") × 100 [formula] […]

[2] = inhibitor 3 X 10^-10 M, 0.0003 µM

CC(C)C[C@H](NC(=O)OCc1ccccc1)C(=O)N[C@@H](CC(C)C)C(=O)N[C@@H](CC(C)C)C(=O)Nc1ccc2c(C(F)(F)F)cc(=O)oc2c1 [Z-LLL-AFC, Z-Leu-Leu-Leu-AFC] (Cbz-Leu-Leu-Leu-{AFC})
cleavage of AFC substrate (Vmax) [1]: noncleavable | Tier (Taenia solium crude mix): 1 (The first tier was composed of those vehicles that produced inhibition greater than 50% when in the presence of the 1.4% cocktail) | % inhibition (Trypsin; vehicle 4 X 10^-5 M, 40 µM): 0%

Mu-Leu-Tyr-AFC [Mu-LY-AFC]
cleavage of AFC substrate (Vmax) [1]: not cleaved | cleavage of AFC substrate (Vmax) ([1]; listed as M-LY-AFC): noncleavable | % inhibition (Cathepsin L; vehicle 4 X 10^-5 M): 25% | % inhibition (Cathepsin L; vehicle 4 X 10^-5 M, 40 µM): subtle inhibition | Tier (Taenia solium crude mix): 1 (The first tier was composed of those vehicles that produced inhibition greater than 50% when in the presence of the 1.4% cocktail) | % inhibition (Trypsin; vehicle 4 X 10^-5 M, 40 µM): 0% | % inhibition (Cathepsin B): 0%

CC(C)C[C@H](NC(=O)OCc1ccccc1)C(=O)N[C@@H](CC(C)C)C(=O)N[C@@H](Cc1ccc(O)cc1)C(=O)Nc1ccc2c(C(F)(F)F)cc(=O)oc2c1 [Z-LLY-AFC, Z-Leu-Leu-Tyr-AFC] (Cbz-Leu-Leu-Tyr-{AFC})
cleavage of AFC substrate (Vmax) [1]: noncleavable | Tier (Taenia solium crude mix): 1 (The first tier was composed of those vehicles that produced inhibition greater than 50% when in the presence of the 1.4% cocktail) | % inhibition (Trypsin; vehicle 4 X 10^-5 M, 40 µM): 0%

CC(C)C[C@H](NC(=O)OCc1ccccc1)C(=O)N[C@@H](CC(C)C)C(=O)N[C@@H](Cc1ccc(O)cc1)C(=O)CF [Z-LLY-FMK, Z-Leu-Leu-Tyr-FMK] (Cbz-Leu-Leu-Tyr-CH2F)
% inhibition (Cathepsin L; [2]): did not inhibit cathepsin L at all | % inhibition (Trypsin; [2]): 0%
